Test results reported in publication PMC6099747, “New Tetrahydroisoquinoline Derivatives Overcome Pgp Activity in Brain-Blood Barrier and Glioblastoma Multiforme in Vitro” (Molecules : A Journal of Synthetic Chemistry and Natural …, 2018).
Like-named read-outs stand apart in the source and are kept apart here.

Experiments:
Caco-2 cells monolayer = test system: Caco-2 cells monolayer; parameters: method as in PMID 27336199, PMID 26797828; settings: cited from earlier work
Pgp [1] = target: T1, Pgp (Homo sapiens, UniProt P08183); parameters: method as in PMID 27336199, PMID 26797828; settings: cited from earlier work
T1 construct: expressed in transfected cells; host or cells: MDCK (Madin-Darby Canine Kidney) cells, gift of Dr. Maria Alessandra Contino, University of Bari
T1 sequence (P08183 whole entry): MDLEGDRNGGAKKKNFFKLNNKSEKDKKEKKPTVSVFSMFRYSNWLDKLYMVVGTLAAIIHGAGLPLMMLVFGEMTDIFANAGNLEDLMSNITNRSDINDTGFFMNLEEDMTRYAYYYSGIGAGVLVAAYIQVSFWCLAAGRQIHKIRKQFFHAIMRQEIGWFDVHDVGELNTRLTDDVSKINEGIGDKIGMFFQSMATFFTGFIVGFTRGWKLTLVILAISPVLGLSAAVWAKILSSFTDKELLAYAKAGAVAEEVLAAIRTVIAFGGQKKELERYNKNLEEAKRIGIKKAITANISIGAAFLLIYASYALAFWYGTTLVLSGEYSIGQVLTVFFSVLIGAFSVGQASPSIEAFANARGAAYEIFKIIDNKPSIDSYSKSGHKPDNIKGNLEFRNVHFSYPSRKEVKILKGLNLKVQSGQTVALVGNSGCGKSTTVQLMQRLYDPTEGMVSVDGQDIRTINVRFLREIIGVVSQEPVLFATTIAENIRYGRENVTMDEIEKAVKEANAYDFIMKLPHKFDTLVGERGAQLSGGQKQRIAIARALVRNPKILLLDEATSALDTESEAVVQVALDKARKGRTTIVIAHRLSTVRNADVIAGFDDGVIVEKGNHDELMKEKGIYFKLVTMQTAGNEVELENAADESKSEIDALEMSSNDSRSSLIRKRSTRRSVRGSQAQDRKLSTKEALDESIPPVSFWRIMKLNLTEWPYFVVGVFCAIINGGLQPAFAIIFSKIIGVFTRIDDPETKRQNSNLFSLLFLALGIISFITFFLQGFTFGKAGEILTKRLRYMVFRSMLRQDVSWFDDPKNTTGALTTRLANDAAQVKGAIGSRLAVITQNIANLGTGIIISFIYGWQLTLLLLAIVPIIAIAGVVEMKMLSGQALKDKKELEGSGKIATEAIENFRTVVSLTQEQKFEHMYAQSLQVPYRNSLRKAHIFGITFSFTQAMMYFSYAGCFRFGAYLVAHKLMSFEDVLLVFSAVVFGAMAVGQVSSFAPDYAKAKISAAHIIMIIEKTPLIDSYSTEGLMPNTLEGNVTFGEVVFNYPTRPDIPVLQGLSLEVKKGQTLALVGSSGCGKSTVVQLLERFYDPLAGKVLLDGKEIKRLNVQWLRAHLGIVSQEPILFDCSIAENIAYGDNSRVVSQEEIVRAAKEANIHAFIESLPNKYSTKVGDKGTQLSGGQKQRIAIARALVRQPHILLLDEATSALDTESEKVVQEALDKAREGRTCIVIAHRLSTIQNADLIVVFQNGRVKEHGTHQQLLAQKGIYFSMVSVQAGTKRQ

hCMEC/D3 cells = assay: Transendothelial electrical resistance (TEER) of BBB monolayer; assay type: cell-based, human; settings: 24 h
BCRP = target: T2, BCRP (Homo sapiens, UniProt Q9UNQ0); assay: Doxorubicin transport across BCRP-MDCK monolayer; assay type: cell-based; settings: 1 nM compound 24 h, 5 μM doxorubicin last 3 h
T2 construct: expressed in transfected cells; host or cells: MDCK (Madin-Darby Canine Kidney) cells, gift of Dr. Maria Alessandra Contino, University of Bari
T2 sequence (Q9UNQ0 1-655): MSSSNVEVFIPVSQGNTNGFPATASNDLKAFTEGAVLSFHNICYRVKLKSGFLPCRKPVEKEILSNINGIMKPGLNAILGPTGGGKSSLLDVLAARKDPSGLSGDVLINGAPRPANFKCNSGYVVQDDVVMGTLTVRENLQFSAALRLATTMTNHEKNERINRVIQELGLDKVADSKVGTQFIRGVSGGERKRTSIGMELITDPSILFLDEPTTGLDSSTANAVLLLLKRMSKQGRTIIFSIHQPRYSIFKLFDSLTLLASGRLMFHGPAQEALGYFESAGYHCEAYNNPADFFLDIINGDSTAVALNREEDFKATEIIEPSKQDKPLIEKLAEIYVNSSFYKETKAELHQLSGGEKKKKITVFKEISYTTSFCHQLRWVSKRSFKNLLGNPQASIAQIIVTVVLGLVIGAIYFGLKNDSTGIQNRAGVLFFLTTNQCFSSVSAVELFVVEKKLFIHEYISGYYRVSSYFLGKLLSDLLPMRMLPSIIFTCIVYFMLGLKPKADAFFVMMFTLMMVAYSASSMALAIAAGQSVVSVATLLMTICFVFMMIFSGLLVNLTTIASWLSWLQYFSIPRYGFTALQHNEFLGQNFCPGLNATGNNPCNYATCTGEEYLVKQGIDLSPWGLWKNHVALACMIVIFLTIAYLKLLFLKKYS
Method: (§1) MDCK, Pgp-MDCK, MRP1-MDCK and BCRP-MDCK cells were a kind gift of Dr. Maria Alessandra Contino (Department of Pharmacy, University of Bari, Italy). Culture and seeding conditions for doxorubicin transport assay were carried out as reported in [37].
(§2) Supplementary Figure S3. Effects of Pgp ligands on doxorubicin transport in Pgp-MDCK,
(§3) MRP1-MDCK and BCRP-MDCK cells
(§4) A. MDCK, Pgp-MDCK, MRP1-MDCK, BCRP-MDCK cells were lysed and immunoblotted with
(§5) h. When indicated, 50 μM verapamil (ver), an inhibitor of Pgp, 25 μM MK571, an inhibitor of […]

Pgp [2] = target: T1, Pgp; settings: Pgp activity, calcein-AM transport; cited from earlier work
MRP1 = target: T3, MRP1 (Homo sapiens, UniProt P33527); assay: Doxorubicin transport across MRP1-MDCK monolayer; assay type: cell-based; settings: 1 nM compound 24 h, 5 μM doxorubicin last 3 h
T3 construct: expressed in transfected cells; host or cells: MDCK (Madin-Darby Canine Kidney) cells, gift of Dr. Maria Alessandra Contino, University of Bari
T3 sequence (P33527 whole entry): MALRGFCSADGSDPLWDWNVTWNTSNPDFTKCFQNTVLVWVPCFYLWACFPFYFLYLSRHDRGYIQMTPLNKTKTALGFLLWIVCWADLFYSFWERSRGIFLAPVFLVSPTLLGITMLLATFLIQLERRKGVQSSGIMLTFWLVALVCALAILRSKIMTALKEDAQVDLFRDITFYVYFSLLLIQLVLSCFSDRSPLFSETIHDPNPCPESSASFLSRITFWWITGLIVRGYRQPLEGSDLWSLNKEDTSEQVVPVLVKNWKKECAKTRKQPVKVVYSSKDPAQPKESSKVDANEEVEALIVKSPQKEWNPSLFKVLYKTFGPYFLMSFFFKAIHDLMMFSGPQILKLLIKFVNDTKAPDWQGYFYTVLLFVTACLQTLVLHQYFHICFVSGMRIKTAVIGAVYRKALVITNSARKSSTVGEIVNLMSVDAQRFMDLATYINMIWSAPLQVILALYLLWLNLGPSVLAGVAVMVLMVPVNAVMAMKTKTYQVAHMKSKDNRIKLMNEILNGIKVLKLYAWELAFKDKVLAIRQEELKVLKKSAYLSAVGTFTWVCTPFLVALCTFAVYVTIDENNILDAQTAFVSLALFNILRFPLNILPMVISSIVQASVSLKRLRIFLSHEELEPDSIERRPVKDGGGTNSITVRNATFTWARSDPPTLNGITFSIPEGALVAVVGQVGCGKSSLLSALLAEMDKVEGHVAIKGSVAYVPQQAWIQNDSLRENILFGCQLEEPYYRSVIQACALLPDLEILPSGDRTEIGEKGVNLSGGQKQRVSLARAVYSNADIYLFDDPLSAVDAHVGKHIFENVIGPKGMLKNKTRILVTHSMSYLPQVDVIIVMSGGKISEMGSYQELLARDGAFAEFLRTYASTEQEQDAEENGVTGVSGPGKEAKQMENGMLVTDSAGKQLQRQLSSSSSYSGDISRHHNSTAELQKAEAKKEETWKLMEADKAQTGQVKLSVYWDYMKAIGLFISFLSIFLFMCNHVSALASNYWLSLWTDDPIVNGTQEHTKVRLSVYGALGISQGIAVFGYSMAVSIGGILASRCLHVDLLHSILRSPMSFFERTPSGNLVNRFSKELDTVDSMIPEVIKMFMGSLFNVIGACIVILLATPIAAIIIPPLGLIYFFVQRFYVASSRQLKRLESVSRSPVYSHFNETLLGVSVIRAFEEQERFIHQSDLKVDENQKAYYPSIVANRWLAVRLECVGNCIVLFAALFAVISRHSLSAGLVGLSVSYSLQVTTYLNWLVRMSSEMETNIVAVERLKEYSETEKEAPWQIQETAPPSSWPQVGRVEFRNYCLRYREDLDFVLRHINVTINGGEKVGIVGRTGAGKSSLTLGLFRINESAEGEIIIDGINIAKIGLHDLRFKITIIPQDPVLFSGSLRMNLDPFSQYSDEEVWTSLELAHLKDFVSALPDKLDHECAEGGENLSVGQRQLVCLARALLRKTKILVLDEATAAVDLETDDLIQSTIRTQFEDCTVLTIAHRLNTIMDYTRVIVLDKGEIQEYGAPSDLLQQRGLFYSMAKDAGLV
Method: as §1, §2, §3, §4, §5

Pgp [3] = target: T1, Pgp; assay: Doxorubicin transport across Pgp-MDCK monolayer; assay type: cell-based; settings: 1 nM compound 24 h, 5 μM doxorubicin last 3 h
Method: as §1, §2, §3
A. MDCK, Pgp-MDCK, MRP1-MDCK, BCRP-MDCK cells were lysed and immunoblotted with […]

hCMEC/D3 cells monolayer [4] = assay: Doxorubicin delivery across BBB monolayer (Transwell); settings: 25 μM MK571 or 5 μM fumitremorgin C alone, 5 μM doxorubicin 3 h
Method: Cells were seeded at 50,000/cm² density, and grown for 7 days up to confluence in 6-well Transwell devices (0.4 μm diameter pores-size, Transwell insert surface: 4.67 cm^2; Corning Life Sciences, Chorges, France for transport assays) or 24-well Transwell devices (0.4 μm diameter pores-size, Transwell insert surface: 0.33 cm^2; Corning Life Sciences, for TEER measurements), to allow the formation of a competent BBB. […] TEER was measured using a Voltohmetro Millicell-ERS (Millipore, Bedford, MA, USA), according to the manufacturer’s instructions. […] This value was subtracted from each value obtained in the presence of the cells.
(A) Human cellular microvascular endothelial cells/D3 clone hCMEC/D3 cells were grown in the upper insert of Transwell devices for 7 days. […] Cell viability was measured by a chemiluminescence-based assay, in triplicates. Data are presented as means ± SD (n = 4). […] (B) hCMEC/D3 cells were grown in the upper insert of Transwell devices for 7 days. […] Cells were lysed and immunoblotted with the indicated antibodies. β-Tubulin level was used as control of equal protein loading. […] The amount of doxorubicin in the medium of the lower chamber was measured spectrofluorimetrically, in duplicates. […]
doxorubicin in the medium of the lower chamber was measured spectrofluorimetrically, in […]

[5] = test system: primary human GB adherent cells (AC); assay: Cytotoxicity (LDH release, caspase 3 activity, cell viability) in glioblastoma adherent cells; assay type: cell-based; settings: 5 µM doxorubicin alone
Method: Cell viability was evaluated by ATPLite kit (PerkinElmer), as per manufacturer’s instructions. The results were expressed as percentage of viable cells in each experimental condition versus untreated cells (considered 100%).
The release of LDH in cell supernatant was measured as reported in [16], using a Synergy HT microplate reader. Both intracellular and extracellular enzyme activities were expressed as μmol NADH oxidized/min/dish, then extracellular LDH activity was calculated as percentage of the total LDH activity. For cytotoxicity assays in co-cultures, 5 μM doxorubicin, alone or in the presence of compounds, was added to the upper chamber of Transwell inserts. After 24 h, both cell culture medium and GB cells from the lower chamber were collected, and checked for the activity of LDH, as described above.
The activity of caspase 3, taken as an index of apoptosis, was measured by incubating 20 µg of cell lysates, collected from GB cells or GB cells growing under BBB monolayer, as reported above, with the fluorogenic substrate of caspase 3 DEVD-7-amino-4-methylcumarine (DEVD-AMC), as reported in [11]. Results were expressed as nmoles AMC/mg proteins, using a calibration curve previously set.
Figure 3 Effects of Pgp ligands on doxorubicin cytotoxicity in glioblastoma cells. Adherent cells (AC) or neurospheres (NS) from glioblastoma samples were grown for 24 h (panel A–B) or 48 h (panel C) in fresh medium (ctrl) or in the presence of 1 nM of compounds 1–6. When indicated, 5 µM doxorubicin (doxo) was co-incubated. (A) The cell culture supernatant was checked spectrophotometrically for the extracellular activity of LDH, in duplicates. Pooled data of patients 1-3 are presented as means ± SD (n = 3). Vs. AC ctrl: * p < 0.001; vs. NS ctrl: ° p < 0.001; vs. NS doxo: ^# p < 0.001. (B) The activity of caspase 3 was measured fluorimetrically, in duplicates. Data are means ± SD (n = 3). Pooled data of patients 1–3 are presented as means ± SD (n = 3). Vs. AC ctrl: * p < 0.001; vs. NS ctrl: ° p < 0.01; vs. NS doxo: ^# p < 0.05. […] Pooled data of patients 1-3 are presented as means ± SD (n = 3). […]

hCMEC/D3 cells monolayer [6] = assay: Permeability of dextran-FITC, sucrose, inulin and lucifer yellow across BBB monolayer

COc1cc2c(cc1OC)CN(Cc1ccc(-c3ccc(O)cc3)cc1)CC2 [7 (MC70), 4′-(6,7-Dimethoxy-3,4-dihydro-1H-isoquinolin-2-ylmethyl)biphenyl-4-ol]
apparent permeability ratio (Caco-2 cells monolayer): < 2 | ATP depletion (Pgp [1]): does not induce ATP depletion

CCCCOc1ccc(-c2ccc(CN3CCc4cc(OC)c(OC)cc4C3)cc2)cc1 [Compound 6]
TEER (Ω cm^2) Compound 1 nM (hCMEC/D3 cells; 1 nM compound): 33 ± 2 Ω cm^2 | TEER (Ω cm^2) Compound 100 nM (hCMEC/D3 cells; 100 nM compound): 31 ± 4 Ω cm^2 | doxorubicin delivery across BCRP-MDCK cells (BCRP): strongly reduced | EC50 (Pgp [2]): 5.2 nM | doxorubicin delivery across MRP1-MDCK cells (MRP1): strongly reduced | doxorubicin permeability across Pgp-MDCK monolayer (Pgp [3]): did not change

CN(C)C(=O)CCSC(SCCC(=O)O)c1cccc(/C=C/c2ccc3ccc(Cl)cc3n2)c1 (stereo not drawn) [MK571]
doxorubicin delivery across hCMEC/D3 cells monolayer (hCMEC/D3 cells monolayer [4]): increased

COc1cccc2c1C(=O)c1c(O)c3c(c(O)c1C2=O)C[C@@](O)(C(=O)CO)C[C@@H]3O[C@H]1C[C@H](N)[C@H](O)[C@H](C)O1 [doxorubicin]
LDH release ([5]; 24 h): increased | caspase 3 activity ([5]; 24 h): increased | cell viability ([5]; 48 h): decreased

COc1ccc2c3c([nH]c2c1)[C@H](C=C(C)C)N1C(=O)[C@@H]2CCCN2C(=O)[C@@H]1C3 [fumitremorgin C]
doxorubicin delivery across hCMEC/D3 cells monolayer (hCMEC/D3 cells monolayer [4]): increased

[^14C]-inulin
permeability coefficient across BBB monolayer (hCMEC/D3 cells monolayer [6]; hCMEC/D3 monolayer without compounds, 3 h): 0.45 ± 0.07 × 10^−3 cm·min^−1

lucifer yellow
permeability coefficient across BBB monolayer (hCMEC/D3 cells monolayer [6]): 0.43 ± 0.11 × 10^−3 cm·min^−1
